Assay results published in patent US9169217B2, “Arylalkyl esters of 4-amino-6-(substituted phenyl)-picolinates and 6-amino-2-(substituted phenyl)-pyrimidinecarboxylates and their use as selective herbicides for crops” (Dow AgroSciences LLC, priority 2011, dated 2015).

Key:
[1] = system: Echinochloa crus-galli (L.) P.BEAUV. (barnyardgrass); experiment: In-water applied herbicidal activity in transplanted paddy rice (Example 17); assay type: in vivo; settings: Echinochloa crus-galli, 504 h, rice cropping systems, in-water applied (paddy), 21 DAA, may represent multiple trials, read-out: Visual Injury (%) ECHCG; for pest or weed control at 17.5 g/ha: 17.5 g ae/ha; for pest or weed control at 35 g/ha: 35 g ae/ha
Experimental: (§1) Weed seeds or nutlets of the desired test plant species were planted in puddled soil (mud) prepared by mixing a non-sterilized mineral soil (28 percent silt, 18 percent clay, and 54 percent sand, with a pH of about 7.3 to 7.8 and an organic matter content of about 1.0 percent) and water at a ratio of 100 kilograms (kg) of soil to 19 liters (L) of water. The prepared mud was dispensed in 250 mL aliquots into 480 mL non-perforated plastic pots with a surface area of 91.6 cm^2 leaving a headspace of 3 cm in each pot. Rice seeds were planted in Sun Gro MetroMix 306 planting mixture, which typically has a pH of 6.0 to 6.8 and an organic matter content of about 30 percent, in plastic plug trays. Seedlings at the second or third leaf stage of growth were transplanted into 650 mL of mud contained in 960 mL non-perforated plastic pots with a surface area of 91.6 cm^2 four days prior to herbicide application. The paddy was created by filling the 3 cm headspace of the pots with water. When required to ensure good germination and healthy plants, a fungicide treatment and/or other chemical or physical treatment was applied. The plants were grown for 4-14 d in a greenhouse with an approximate 14-h photoperiod which was maintained at about 29° C. during the day and 26° C. during the night. Nutrients were added as Osmocote (17:6:10, Nitrogen:Phosphorus:Potassium (N:P:K)+minor nutrients) at 2 grams (g) per cup. Water was added on a regular basis to maintain the paddy flood, and supplemental lighting was provided with overhead metal halide 1000-Watt lamps as necessary. The plants were employed for testing when they reached the second or third true leaf stage.
(§2) Treatments consisted of esters of compounds 1-4, 6-33, 35-39, 41 and 42 and A-G. Compound A is methyl 4-amino-3-chloro-6-(4-chloro-3-ethoxy-2-fluorophenyl)-5-fluoropicolinate; compound B is methyl 4-amino-3-chloro-6-(4-cyclopropylphenyl)-5-fluoropicolinate; compound C is methyl 4-amino-3-chloro-6-(2,4-dichloro-3-methoxyphenyl)picolinate; compound D is methyl 6-amino-2-(4-chloro-2-fluoro-3-methoxyphenyl)-5-vinylpyrimidine-4-carboxylate; compound E is methyl 4-amino-3-chloro-6-(4-chloro-2-fluoro-3-methoxyphenyl)-5-fluoropicolinate; compound F is methyl 6-amino-2-(4-chloro-2-fluoro-3-methoxyphenyl)-5-methoxypyrimidine-4-carboxylate; and compound G is methyl 4-amino-3-chloro-6-(4-chloro-2-fluoro-3-methoxyphenyl)picolinate. Weighed amounts of technical grade compounds were placed in individual 120 mL glass vials and were dissolved in 20 mL of acetone to obtain concentrated stock solutions. […] The concentrated stock solutions obtained were diluted with 20 mL of an aqueous mixture containing 2.5% Agri-dex crop oil concentrate (v/v). The final application solutions contained 1.25% (v/v) Agri-dex crop oil concentrate. Generally, multiple concentrations were tested utilizing the same stock solution. Applications were made by injecting an appropriate amount of the application solution into the aqueous layer of the paddy. Control plants were treated in the same manner with the solvent blank.
(§3) The treated plants and control plants were placed in a greenhouse as described above and water was added as needed to maintain a paddy flood. After 3 weeks the condition of the test plants, compared with that of the untreated plants, was determined visually and scored on a scale of 0 to 100 percent where 0 corresponds to no injury and 100 corresponds to complete kill.
(§4) By applying the well-accepted probit analysis as described by J. Berkson in Journal of the American Statistical […], 48, 565 (1953) and by D. Finney in “Probit Analysis” Cambridge University Press (1952), the data gathered can be used to calculate GR50 and GR80 values, which are defined as growth reduction factors that correspond to the effective dose of herbicide required to kill or control 50 percent or 80 percent, respectively, of a target plant.

[2] = system: Scirpus juncoides ROXB. (Japanese bulrush); experiment: as above; assay type: in vivo; settings: Schoenoplectiella juncoides, 504 h; rice cropping systems, in-water applied (paddy), 17.5 g ae/ha, 21 DAA; may represent multiple trials; read-out: Visual Injury (%) SCPJU
Experimental: as §1, §2, §3, §4

[3] = system: Cyperus difformis L. (small-flower flatsedge); experiment: Postemergence foliar-applied herbicidal activity in direct seeded rice (Example 16); assay type: in vivo; settings: post-emergence, 504 h, rice cropping systems, foliar-applied, 8.75 g ae/ha, 21 DAA, may represent multiple trials, read-out: Visual Injury (%) CYPDI
Excerpt: (§5) Seeds or nutlets of the desired test plant species were planted in a soil matrix prepared by mixing a loam soil (43 percent silt, 19 percent clay, and 38 percent sand, with a pH of about 8.1 and an organic matter content of about 1.5 percent) and river sand in an 80 to 20 ratio. The soil matrix was contained in plastic pots with a surface area of 139.7 cm^2. When required to ensure good germination and healthy plants, a fungicide treatment and/or other chemical or physical treatment was applied. The plants were grown for 10-17 d in a greenhouse with an approximate 14-h photoperiod which was maintained at about 29° C. during the day and 26° C. during the night. Nutrients and water were added on a regular basis and supplemental lighting was provided with overhead metal halide 1000-Watt lamps as necessary. The plants were employed for testing when they reached the second or third true leaf stage.
(§6) Treatments consisted of esters of compounds 1-4, 6-8, 10, 11, 13-16, 20-31, 35, 38, 41 and 42 and A-E. Compound A is methyl 4-amino-3-chloro-6-(4-chloro-3-ethoxy-2-fluorophenyl)-5-fluoropicolinate; compound B is methyl 4-amino-3-chloro-6-(4-cyclopropylphenyl)-5-fluoropicolinate; compound C is methyl 4-amino-3-chloro-6-(2,4-dichloro-3-methoxyphenyl)picolinate; compound D is methyl 6-amino-2-(4-chloro-2-fluoro-3-methoxyphenyl)-5-vinylpyrimidine-4-carboxylate; and compound E is methyl 4-amino-3-chloro-6-(4-chloro-2-fluoro-3-methoxyphenyl)-5-fluoropicolinate. Weighed amounts of technical grade compounds were placed in 25 mL glass vials and dissolved in a volume of 97:3 v/v acetone-DMSO to obtain 12× stock solutions. […] The concentrated stock solutions were added to the spray solutions so that the final acetone and DMSO concentrations were 16.2% and 0.5%, respectively. Spray solutions were diluted to the appropriate final concentrations with the addition of 10 mL of an aqueous mixture of 1.5% (v/v) Agri-dex crop oil concentrate. Generally, multiple concentrations of spray solutions were formulated and tested utilizing the same stock solution. The final spray solutions contained 1.25% (v/v) Agri-dex crop oil concentrate. Compound requirements are based upon a 12 mL application volume at a rate of 187 L/ha. Spray solutions were applied to the plant material with an overhead Mandel track sprayer equipped with 8002E nozzles calibrated to deliver 187 L/ha over an application area of 0.503 square meters (m^2) at a spray height of 18 inches (43 cm) above average plant canopy height. Control plants were sprayed in the same manner with the solvent blank.
as §3, with “watered by sub-irrigation” for “water was added as needed”, “prevent wash-off of the test compounds.” for “maintain a paddy flood.”, “weeks,” for “weeks”
as §4

[4] = system: Scirpus juncoides ROXB. (Japanese bulrush); experiment: as above; assay type: in vivo; settings: Schoenoplectiella juncoides, post-emergence, 504 h; rice cropping systems, foliar-applied, 8.75 g ae/ha, 21 DAA; may represent multiple trials; read-out: Visual Injury (%) SCPJU
Excerpt: as §5, §6
as §3, with “watered by sub-irrigation” for “water was added as needed”, “prevent wash-off of the test compounds.” for “maintain a paddy flood.”, “weeks,” for “weeks”
as §4

SMILES	melting point [°C]	pest or weed control at 17.5 g/ha [1] [%]	pest or weed control at 17.5 g/ha [2] [%]	pest or weed control at 8.75 g/ha [3] [%]	pest or weed control at 8.75 g/ha [4] [%]	pest or weed control at 35 g/ha [1] [%]
COc1c(Cl)ccc(-c2cc(N)c(Cl)c(C(=O)OC(C)c3ccccc3)n2)c1F (stereo not drawn) [Compound 19]	110 to 113					90
COc1c(Cl)ccc(-c2nc(C(=O)OCc3ccccc3C)c(Cl)c(N)c2F)c1F [Compound 8]	135	100	100	99	99	
COc1c(Cl)ccc(-c2cc(N)c(Cl)c(C(=O)OCCc3ccccc3)n2)c1F [Compound 37]						98
COc1c(Cl)ccc(-c2nc(C(=O)OCc3ccccc3Cl)c(Cl)c(N)c2F)c1F [Compound 9]	183 to 184	100	100			
COc1c(Cl)ccc(-c2nc(C(=O)OCCc3ccccc3)c(Cl)c(N)c2F)c1F [Compound 15]	84 to 85	30	70	100	90	
COc1c(Cl)ccc(-c2nc(C(=O)OCc3cccc(Cl)c3)c(Cl)c(N)c2F)c1F [Compound 12]	147 to 148	100	100			
COc1c(Cl)ccc(-c2cc(N)c(Cl)c(C(=O)OCc3ccc(Cl)cc3)n2)c1F [Compound 18]	100 to 108					100
COc1c(Cl)ccc(-c2nc(C(=O)OC(C)c3ccccc3)c(Cl)c(N)c2F)c1F (stereo not drawn) [Compound 14]		10	70	95	50	
COC(=O)c1ccccc1COC(=O)c1nc(-c2ccc(Cl)c(OC)c2F)c(F)c(N)c1Cl [Compound 32]	161	60	100			
COc1c(Cl)ccc(-c2nc(C(=O)OCc3ccc(OC(F)(F)F)cc3)c(Cl)c(N)c2F)c1F [Compound 20, 4-trifluoromethoxybenzyl 4-amino-3-chloro-6-(4-chloro-2-fluoro-3-methoxyphenyl)-5-fluoropicolinate]		50	0	100	100	

More lines, main results first:

melting point [°C]	SMILES	pest or weed control at 17.5 g/ha [1] [%]	pest or weed control at 17.5 g/ha [2] [%]	pest or weed control at 8.75 g/ha [3] [%]	pest or weed control at 8.75 g/ha [4] [%]	pest or weed control at 35 g/ha [1] [%]
182	COC(=O)c1ccc(COC(=O)c2nc(-c3ccc(Cl)c(OC)c3F)c(F)c(N)c2Cl)cc1 [Compound 16]	90	99	94	85	
75 to 76	COc1c(Cl)ccc(-c2nc(C(=O)OCc3ccc(C(C)C)cc3)c(Cl)c(N)c2F)c1F [Compound 27]	10	80	100	100	
151	COc1c(Cl)ccc(-c2nc(C(=O)OCc3ccc(C#N)cc3)c(Cl)c(N)c2F)c1F [Compound 4]	95	95	80	80	
118 to 119	COc1c(Cl)ccc(-c2nc(C(=O)OCc3ccc(C(F)(F)F)cc3)c(Cl)c(N)c2F)c1F [Compound 6]	60	95	100	100	
207 to 208	COc1c(Cl)ccc(-c2nc(C(=O)OCc3ccc([N+](=O)[O-])cc3)c(Cl)c(N)c2F)c1F [Compound 21]	10	80	100	100	
139	COc1c(Cl)ccc(-c2nc(C(=O)OCc3ccc(C)cc3)c(Cl)c(N)c2F)c1F [Compound 3]	78	99	100	99	
143 to 144	COc1c(Cl)ccc(-c2nc(C(=O)OCc3ccc(F)cc3)c(Cl)c(N)c2F)c1F [Compound 24]	70	100	100	100	
150	COc1c(Cl)ccc(-c2nc(C(=O)OCc3cccc(C)c3)c(Cl)c(N)c2F)c1F [Compound 11]	97	99	99	97	
135 to 136	COc1ccccc1COC(=O)c1nc(-c2ccc(Cl)c(OC)c2F)c(F)c(N)c1Cl [Compound 10]	70	100	100	91	
183 to 184	COc1ccc(COC(=O)c2nc(-c3ccc(Cl)c(OC)c3F)c(F)c(N)c2Cl)cc1 [Compound 5]					
